Columns and labels:
Type in all cases: in vivo
Zea mays (ZEAMX) = assay: F. Post-emergence effect on useful plants, ZEAMX; details: useful plant
Protocol: (§1) Seeds of monocotyledonous and dicotyledonous weeds and crop plants were placed in sandy loam in plastic or organic planting pots, covered with soil and cultivated in a greenhouse under controlled growth conditions. 2 to 3 weeks after sowing, the test plants were treated at the one-leaf stage. The compounds of the invention, formulated in the form of wettable powders (WP) or as emulsion concentrates (EC), were then sprayed onto the green parts of the plants as aqueous suspension or emulsion with addition of 0.5% additive at a water application rate of 600 l/ha (converted). After the test plants had been kept in the greenhouse under optimum growth conditions for about 3 weeks, the activity of the preparations was rated visually in comparison to untreated controls.
(§2) For example, • 100% efficacy=plants have died, • 0% action=like untreated control plants.
(§3) Tables F1a to F4 below show the effects of selected compounds of the general formula (I) according to table 1 on various useful plants at an application rate corresponding to 320 g/ha or less, which were obtained by the experimental procedure mentioned above.

[1] = tested on: Matricaria inodora (MATIN); assay: B. Herbicidal post-emergence efficacy, MATIN
Protocol: (§4) Seeds of mono- and dicotyledonous weed plants were placed in plastic pots in sandy loam soil (doubly sown with in each case one species of mono- or dicotyledonous weed plants per pot), covered with soil and cultivated in a greenhouse under controlled growth conditions. 2 to 3 weeks after sowing, the test plants were treated at the one-leaf stage. The compounds of the invention, formulated in the form of wettable powders (WP) or as emulsion concentrates (EC), were applied onto the green parts of the plants as aqueous suspension or emulsion with addition of 0.5% additive at a water application rate of 600 liters per hectare (converted). After the test plants had been kept in the greenhouse under optimum growth conditions for about 3 weeks, the activity of the preparations was rated visually in comparison to untreated controls.
(§5) For example, • 100% efficacy=plants have died, • 0% efficacy=like untreated control plants
(§6) Tables B1a to B12c below show the effects of selected inventive compounds of the general formula (I) according to table 1 on various harmful plants at an application rate corresponding to 1280 g/ha or less, which were obtained by the experimental procedure mentioned above.

Oryza sativa (ORYSA) [2] = assay: F. Post-emergence effect on useful plants, ORYSA; details: useful plant
Protocol: as §1, §2, §3

Oryza sativa (ORYSA) [3] = assay: D. Pre-emergence effect on useful plants, ORYSA; details: useful plant
Description: (§7) Seeds of monocotyledonous and dicotyledonous weed plants and crop plants were placed in plastic or organic planting pots and covered with soil. The compounds of the invention, formulated in the form of wettable powders (WP) or as emulsion concentrates (EC), were then applied to the surface of the covering soil as aqueous suspension or emulsion with addition of 0.5% additive at a water application rate equivalent to 600 l/ha (converted). After the treatment, the pots were placed in a greenhouse and kept under good growth conditions for the test plants. After about 3 weeks, the efficacy of the preparations was scored visually in comparison with untreated controls as percentages. For example, • 100% efficacy=plants have died, • 0% efficacy=like untreated control plants.
(§8) Tables D1a to D5b below show the effects of selected compounds of the general formula (I) according to table 1 on various useful plants at an application rate corresponding to 320 g/ha or less, which were obtained by the experimental procedure mentioned above.

[4] = tested on: Alopecurus myosuroides (ALOMY); assay: B. Herbicidal post-emergence efficacy, ALOMY; details: rated visually after about 3 weeks
Protocol: as §4, §5, §6

Glycine max (GLXMA) = assay: D. Pre-emergence effect on useful plants, GLXMA; details: useful plant, application rate 80 g/ha
Description: as §7, §8

Lolium rigidum (LOLRI) = assay: E. Herbicidal post-emergence efficacy, LOLRI
Protocol: as §1, §2
Tables E1a to E12b below show the effects of selected compounds of the general formula (I) according to table 1 on various harmful plants at an application rate corresponding to 320 g/ha or less, which were obtained by the experimental procedure mentioned above.

Brassica napus (BRSNW) = assay: D. Pre-emergence effect on useful plants, BRSNW; details: useful plant
Description: as §7, §8

For `O=S(=O)(CCC(F)=C(F)F)Oc1c(F)cccc1Oc1ncc(Cl)cn1` [Example I-70], the “Post-emergence efficacy against ZEAMX in %” value (Zea mays (ZEAMX); application rate 80 g/ha) was 20%.
In the case of `C=CCCS(=O)(=O)Oc1c(F)cccc1Oc1ncc(Cl)cn1` [Example I-50], the “Post-emergence efficacy against MATIN” value ([1]; 1280 g/ha) is reported as 90%.
For `O=S(=O)(CCCC(F)F)Oc1c(F)cccc1Oc1ncc(Cl)cn1` [Example I-56], the “Post-emergence efficacy against ZEAMX in %” value (Zea mays (ZEAMX); application rate 80 g/ha) was 20%, the “Post-emergence efficacy against MATIN” value ([1]; 320 g/ha) was 90% and the “Post-emergence efficacy against MATIN” value ([1]; 1280 g/ha) was 90%.
In the case of `O=S(=O)(CCl)Oc1ccccc1Oc1ncc(Cl)cn1` [Example I-9], the “Post-emergence efficacy against ZEAMX in %” value (Zea mays (ZEAMX); application rate 80 g/ha) is reported as 20%, the “Post-emergence efficacy against ZEAMX in %” value (Zea mays (ZEAMX); application rate 320 g/ha) is reported as 20% and the “Post-emergence efficacy against ORYSA in %” value (Oryza sativa (ORYSA) [2]; application rate 80 g/ha) is reported as 10%. The “Post-emergence efficacy against ORYSA in %” value (Oryza sativa (ORYSA) [2]; application rate 320 g/ha) was 10% and the “Pre-emergence efficacy against ORYSA in %” value (Oryza sativa (ORYSA) [3]; application rate 80 g/ha) was 0%.
In the case of `O=S(=O)(CC1CC1)Oc1ccccc1Oc1ncc(Cl)cn1` [Example I-23], the “Post-emergence efficacy against ZEAMX in %” value (Zea mays (ZEAMX); application rate 80 g/ha) is reported as 20%, the “Post-emergence efficacy against ORYSA in %” value (Oryza sativa (ORYSA) [2]; application rate 80 g/ha) is reported as 0% and the “Post-emergence efficacy against ALOMY in %” value ([4]; 320 g/ha) is reported as 90%. For the same compound, the “Post-emergence efficacy against ALOMY in %” value ([4]; 1280 g/ha) was 90%.
For `O=S(=O)(CCCC(F)(F)F)Oc1c(Cl)cccc1Oc1ncc(Br)cn1` [Example I-34], the “Pre-emergence efficacy against GLXMA in %” value (Glycine max (GLXMA)) was 0%.
With `Cc1cccc(Oc2ncc(F)cn2)c1OS(=O)(=O)CCCC(F)(F)F` [Example I-46] the “Post-emergence efficacy against ALOMY in %” value ([4]; 1280 g/ha) was 90%.
In the case of `O=S(=O)(CCC(F)(F)F)Oc1c(F)cccc1Oc1ncc(F)cn1` [Example I-47], the “Post-emergence efficacy against ALOMY in %” value ([4]; 320 g/ha) is reported as 90%, the “Post-emergence efficacy against ALOMY in %” value ([4]; 1280 g/ha) is reported as 100% and the “Post-emergence efficacy against LOLRI in %” value (Lolium rigidum (LOLRI); application rate 320 g/ha) is reported as 100%.
In the case of `O=S(=O)(CCCC(F)(F)C(F)(F)F)Oc1c(F)cccc1Oc1ncc(Cl)cn1` [Example I-68], the “Pre-emergence efficacy against GLXMA in %” value (Glycine max (GLXMA)) is reported as 10%.
With `O=S(=O)(CCCC(F)(F)F)Oc1c(F)cccc1Oc1ncc(F)cn1` [Example I-42] the “Post-emergence efficacy against ALOMY in %” value ([4]; 320 g/ha) was 100%, the “Post-emergence efficacy against ALOMY in %” value ([4]; 1280 g/ha) was 100% and the “Post-emergence efficacy against LOLRI in %” value (Lolium rigidum (LOLRI); application rate 80 g/ha) was 80%. The “Post-emergence efficacy against LOLRI in %” value (Lolium rigidum (LOLRI); application rate 320 g/ha) was 100%.
`CCCCCS(=O)(=O)Oc1ccccc1Oc1ncc(Cl)cn1` [Example I-24] was tested, and the “Post-emergence efficacy against ZEAMX in %” value (Zea mays (ZEAMX); application rate 80 g/ha) was 20%, the “Post-emergence efficacy against ORYSA in %” value (Oryza sativa (ORYSA) [2]; application rate 80 g/ha) was 0% and the “Post-emergence efficacy against ORYSA in %” value (Oryza sativa (ORYSA) [2]; application rate 320 g/ha) was 0%. The “Pre-emergence efficacy against BRSNW in %” value (Brassica napus (BRSNW); application rate 80 g/ha) was 0%, the “Pre-emergence efficacy against BRSNW in %” value (Brassica napus (BRSNW); application rate 320 g/ha) was 0% and the “Pre-emergence efficacy against ORYSA in %” value (Oryza sativa (ORYSA) [3]; application rate 80 g/ha) was 0%. For the same compound, the “Pre-emergence efficacy against ORYSA in %” value (Oryza sativa (ORYSA) [3]; application rate 320 g/ha) was 20%.
With `O=S(=O)(CCCC(F)(F)F)Oc1c(F)cccc1Oc1ncc(Br)cn1` [Example I-41] the “Post-emergence efficacy against ZEAMX in %” value (Zea mays (ZEAMX); application rate 80 g/ha) was 0%, the “Post-emergence efficacy against ZEAMX in %” value (Zea mays (ZEAMX); application rate 320 g/ha) was 20% and the “Post-emergence efficacy against ALOMY in %” value ([4]; 1280 g/ha) was 90%.
In the case of `O=S(=O)(CCCCCl)Oc1ccccc1Oc1ncc(Cl)cn1` [Example I-15], the “Post-emergence efficacy against ORYSA in %” value (Oryza sativa (ORYSA) [2]; application rate 80 g/ha) is reported as 0% and the “Post-emergence efficacy against ORYSA in %” value (Oryza sativa (ORYSA) [2]; application rate 320 g/ha) is reported as 20%.
With `O=S(=O)(CCC(F)(F)F)Oc1ccccc1Oc1ncc(Cl)cn1` [Example I-8] the “Post-emergence efficacy against ORYSA in %” value (Oryza sativa (ORYSA) [2]; application rate 80 g/ha) was 20% and the “Post-emergence efficacy against LOLRI in %” value (Lolium rigidum (LOLRI); application rate 320 g/ha) was 80%.
`Cc1cccc(Oc2ncc(F)cn2)c1OS(=O)(=O)CCC(F)(F)F` [Example I-45] was tested, and the “Post-emergence efficacy against ALOMY in %” value ([4]; 1280 g/ha) was 90%.
`CCS(=O)(=O)Oc1ccccc1Oc1ncc(Cl)cn1` [Example I-16] was tested, and the “Post-emergence efficacy against ALOMY in %” value ([4]; 1280 g/ha) was 90%.
In the case of `CCCS(=O)(=O)Oc1ccccc1Oc1ncc(Cl)cn1` [Example I-3], the “Post-emergence efficacy against ZEAMX in %” value (Zea mays (ZEAMX); application rate 80 g/ha) is reported as 10%, the “Post-emergence efficacy against ORYSA in %” value (Oryza sativa (ORYSA) [2]; application rate 80 g/ha) is reported as 10% and the “Post-emergence efficacy against ALOMY in %” value ([4]; 1280 g/ha) is reported as 90%. The “Pre-emergence efficacy against ORYSA in %” value (Oryza sativa (ORYSA) [3]; application rate 80 g/ha) was 20%.
